Patent publication US7556938B1, “Nucleic acids encoding potassium channel interactors” (Millennium Pharmaceuticals, Inc., priority 1998, dated 2009)

Columns and labels:
Kv1.1/Kvβ1 = molecular target: T1, Kv1.1/Kvβ1 (Rattus norvegicus, UniProt P10499); assay: AA modulation of Kv1.1/Kvβ1 current in Xenopus oocytes; format: cell-based; conditions: Kv1.1/Kvβ1, 10 μM AA, listed as AA
T1 construct: expressed in transfected cells; host or cells: Xenopus oocytes
Experimental: (§1) Frogs underwent no more than two surgeries and surgeries were performed by well established techniques. Frogs were anesthetized with ice. Total cRNA (1-10 ng) was injected into stage IV Xenopus oocytes that were harvested the previous day. The Xenopus oocytes were incubated in ND96 containing (in mM) 96 NaCl, 2 KCl, 1.8 CaCl2, 1 MgCl2, 5 HEPES, pH 7.6, plus (Gentamycin 50 μg/ml) at 18° C. Xenopus oocytes were studied 3-7 days after injection. The two-electrode voltage-clamp recordings were performed in ND96 solution using a TURBO TEC 03 Clamp Amplifier (ALA Scientific Instruments, Westbury, N.Y.). Both electrodes were filled with 3 M KCl and had electrode resistances ranging from 0.2-1 MOhm. The current signals were filtered at 1000 Hz before transferred on a PC (Gateway, Calif.) using the PULSE software (HEKA, Germany).
(§2) In this example, the foregoing was tested by measuring two alpha/auxiliary complexes: Kv4.3/KChIP1 and Kv1.1/Kvβ1. (Kvβ1, which is one of the classic potassium channel beta subunits, dramatically changes Kv1.1 kinetics). Kv4.3/KChIP and Kv1.1/Kvβ1 were expressed respectively in Xenopus oocytes and their resulting currents were recorded in the presence or absence of […] AA. […] Kinetically, […] was much more sensitive to AA modulation than was Kv1.1/Kvβ1 (Table 4).

[1] = molecular target: T2, interaction between N-terminal domain of Kv4.3 and KChIP1 (Rattus norvegicus, UniProt Q62897+Q8R426); assay: Biosensor (Biacore) in vitro binding of KChIP1 to GST-Kv4.3N with and without arachidonic acid; conditions: 10 μM arachidonic acid, 1 μM KChIP1
T2 construct: The intracellular N-terminal domain of Kv4.3 was expressed as a GST fusion protein (GST-Kv4.3N); GST (N, cleaved yes); made in house; host or cells: E. coli
T2 sequence (Q62897 1-182 limits assumed): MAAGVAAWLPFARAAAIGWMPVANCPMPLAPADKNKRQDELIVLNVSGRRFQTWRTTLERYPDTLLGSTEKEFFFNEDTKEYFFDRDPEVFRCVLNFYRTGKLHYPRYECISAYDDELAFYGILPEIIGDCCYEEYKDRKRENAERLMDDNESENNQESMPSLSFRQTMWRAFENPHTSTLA
T2 sequence (Q8R426 1-216 isoform Q8R426-2): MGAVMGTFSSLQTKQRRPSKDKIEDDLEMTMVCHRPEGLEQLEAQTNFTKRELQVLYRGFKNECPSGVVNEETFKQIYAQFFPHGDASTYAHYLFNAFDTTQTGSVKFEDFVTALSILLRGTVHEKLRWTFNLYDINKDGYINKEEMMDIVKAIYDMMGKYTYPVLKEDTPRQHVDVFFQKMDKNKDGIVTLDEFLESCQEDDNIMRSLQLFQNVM
Excerpt: The N-terminal domain of rat Kv4.3 was expressed as a GST fusion (GST-Kv4.3N) and purified from E. coli essentially following protocols provided by Amersham Pharmacia Biotech (Piscataway, N.J.). Recombinant rat KChIP1 protein was first expressed and purified as a GST-fusion, then the GST moiety was cleaved using PreScission protease (Amersham Pharmacia Biotech) to give rise to the free KChIP1 protein. Both GST-Kv4.3N and KChIP proteins were >95% pure as estimated by coomassie stain of denaturing gels. In vitro binding assays were performed using a Biacore 3000 from Biacore AB in Uppsala, Sweden. The experiments were performed in phosphate buffered saline (PBS), pH 7.4, with 1 mM CaCl2 and 0.05% polysorbate P-20. Anti-GST antibody (Biacore AB) was coupled to 3 flowcells of a CM-5 chip (Biacore AB) at a level of 2000 resonance units (RUs) using amine coupling. […]
To test the hypothesis that arachidonic acid acts by interfering with the binding between Kv4 and KChIPs, the surface plasmon resonance measurement (Biosensor) was first used to monitor the association and dissociation phases of Kv4-KChIP interaction in the presence and absence of arachidonic acid. The intracellular N-terminal domain of Kv4.3 was expressed as a GST fusion protein (GST-Kv4.3N) and immobilized to the surface of a Biosensor chip. […]

Kv1.1 = molecular target: T3, Kv1.1 (Rattus norvegicus, UniProt P10499); assay: AA modulation of Kv1.1 current in Xenopus oocytes; format: cell-based; conditions: Kv1.1 alone, 10 μM AA
T3 construct: expressed in transfected cells; host or cells: Xenopus oocytes
Experimental: as §1, §2

T1 sequence (P10499 whole entry): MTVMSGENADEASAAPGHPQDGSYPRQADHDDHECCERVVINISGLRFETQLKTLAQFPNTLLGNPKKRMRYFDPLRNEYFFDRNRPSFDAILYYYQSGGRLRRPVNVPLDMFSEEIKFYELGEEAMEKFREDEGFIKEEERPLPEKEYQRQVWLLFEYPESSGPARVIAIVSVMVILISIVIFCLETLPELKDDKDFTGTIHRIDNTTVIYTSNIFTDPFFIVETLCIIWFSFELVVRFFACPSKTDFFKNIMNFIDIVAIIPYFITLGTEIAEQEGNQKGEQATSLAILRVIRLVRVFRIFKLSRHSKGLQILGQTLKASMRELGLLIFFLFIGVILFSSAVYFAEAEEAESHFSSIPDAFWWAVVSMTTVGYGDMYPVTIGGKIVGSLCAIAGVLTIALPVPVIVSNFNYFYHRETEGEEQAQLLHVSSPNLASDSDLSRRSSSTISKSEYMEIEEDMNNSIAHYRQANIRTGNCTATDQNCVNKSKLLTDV
T3 sequence (P10499 whole entry): as above

**Q.** For `CCCCC/C=C\C/C=C\C/C=C\C/C=C\CCCC(=O)O` [arachidonic acid], which “Inactivation time constant (ms ± SEM)” value (Kv1.1/Kvβ1) is on record?
**A.** The value was 9 ± 1 ms.

**Q.** And the “Peak amplitude (μA ± SEM)” value (Kv1.1/Kvβ1)?
**A.** The value was 14±1 μA.

**Q.** And the “effect on association and dissociation phase of KChIP1 binding to GST-Kv4.3N” value [1]?
**A.** The value was “a qualitative difference aws not observed”.

**Q.** What about the “Peak amplitude (μA ± SEM)” value (Kv1.1) of the same compound?
**A.** The value was 21 ± 3 μA.
